Test results published in ChEMBL document CHEMBL5291721, “A preclinical secondary pharmacology resource illuminates target-adverse drug reaction associations of marketed drugs” (Nat Commun, 2023).
Values belong to the compound of their own block, whether it stands above or below them.

Tests used:
D(1B) dopamine receptor = D(1B) dopamine receptor (Homo sapiens, UniProt P21918)
[1] = target: 5-hydroxytryptamine receptor 5A (Homo sapiens, UniProt P47898)
[2] = target: Rod cGMP-specific 3',5'-cyclic phosphodiesterase subunit alpha (Homo sapiens, UniProt P16499); format: functional
[3] = target: T1, Type-1 angiotensin II receptor (Homo sapiens, UniProt P30556)
T1 sequence (P30556 whole entry): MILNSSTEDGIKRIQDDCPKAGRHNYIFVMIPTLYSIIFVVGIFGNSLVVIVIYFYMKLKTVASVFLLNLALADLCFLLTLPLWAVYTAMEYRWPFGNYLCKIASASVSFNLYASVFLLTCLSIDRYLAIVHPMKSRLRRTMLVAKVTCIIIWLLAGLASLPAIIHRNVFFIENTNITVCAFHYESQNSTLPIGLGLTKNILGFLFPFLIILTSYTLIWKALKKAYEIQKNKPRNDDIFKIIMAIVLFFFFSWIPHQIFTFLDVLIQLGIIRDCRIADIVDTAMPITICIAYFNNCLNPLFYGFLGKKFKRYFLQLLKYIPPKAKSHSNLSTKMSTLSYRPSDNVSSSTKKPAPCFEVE

[4] = target: T2, Muscarinic acetylcholine receptor M1 (Homo sapiens, UniProt P11229)
T2 sequence (P11229 whole entry): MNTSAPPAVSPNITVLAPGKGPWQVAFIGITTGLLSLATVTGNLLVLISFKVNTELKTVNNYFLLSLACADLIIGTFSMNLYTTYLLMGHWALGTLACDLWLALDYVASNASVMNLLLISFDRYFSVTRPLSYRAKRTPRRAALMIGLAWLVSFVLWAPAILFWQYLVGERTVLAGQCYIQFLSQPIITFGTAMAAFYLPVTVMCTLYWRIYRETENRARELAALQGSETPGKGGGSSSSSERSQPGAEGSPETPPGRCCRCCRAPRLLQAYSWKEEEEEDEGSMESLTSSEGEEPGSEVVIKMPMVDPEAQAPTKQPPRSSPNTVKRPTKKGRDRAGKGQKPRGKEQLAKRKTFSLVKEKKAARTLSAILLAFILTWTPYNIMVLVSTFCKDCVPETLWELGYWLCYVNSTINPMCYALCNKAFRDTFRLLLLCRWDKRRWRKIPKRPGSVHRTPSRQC

[5] = target: T3, Type-2 angiotensin II receptor (Homo sapiens, UniProt P50052); format: functional
T3 sequence (P50052 whole entry): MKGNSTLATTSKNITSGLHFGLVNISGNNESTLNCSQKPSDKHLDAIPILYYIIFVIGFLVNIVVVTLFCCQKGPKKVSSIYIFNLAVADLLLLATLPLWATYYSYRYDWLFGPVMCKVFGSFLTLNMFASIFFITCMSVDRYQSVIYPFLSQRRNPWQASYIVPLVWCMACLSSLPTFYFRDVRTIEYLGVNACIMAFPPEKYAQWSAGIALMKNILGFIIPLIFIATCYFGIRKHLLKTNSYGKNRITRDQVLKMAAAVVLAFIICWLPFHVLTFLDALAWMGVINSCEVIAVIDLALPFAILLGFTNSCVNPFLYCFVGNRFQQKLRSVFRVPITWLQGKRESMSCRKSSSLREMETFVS

Histamine H1 receptor [6] = target: T4, Histamine H1 receptor (Homo sapiens, UniProt P35367); format: functional, cell-based
Histamine H1 receptor [7] = target: T4, Histamine H1 receptor; format: functional, cell-based; remark: listed apart in the source
[8] = target: Beta-1 adrenergic receptor (Homo sapiens, UniProt P08588); format: functional, cell-based
[9] = target: T5, Oxysterols receptor LXR-alpha (Homo sapiens, UniProt Q13133); format: functional
[10] = target: T5, Oxysterols receptor LXR-alpha; format: functional; remark: listed apart in the source
[11] = target: T6, Peroxisome proliferator-activated receptor alpha (Homo sapiens, UniProt Q07869); format: functional
T6 sequence (Q07869 whole entry): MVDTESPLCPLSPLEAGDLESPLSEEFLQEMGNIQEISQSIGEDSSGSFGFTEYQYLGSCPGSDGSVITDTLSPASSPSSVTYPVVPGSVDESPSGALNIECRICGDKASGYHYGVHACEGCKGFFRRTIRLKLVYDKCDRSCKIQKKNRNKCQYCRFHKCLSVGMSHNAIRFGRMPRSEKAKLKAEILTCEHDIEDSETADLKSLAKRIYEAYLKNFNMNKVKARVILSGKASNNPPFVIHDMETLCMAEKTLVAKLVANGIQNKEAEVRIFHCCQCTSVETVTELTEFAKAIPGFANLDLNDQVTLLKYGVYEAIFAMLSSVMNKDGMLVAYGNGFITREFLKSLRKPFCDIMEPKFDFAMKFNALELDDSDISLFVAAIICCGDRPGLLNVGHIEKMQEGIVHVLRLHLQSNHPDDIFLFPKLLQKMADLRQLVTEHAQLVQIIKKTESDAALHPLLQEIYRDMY

[12] = target: T6, Peroxisome proliferator-activated receptor alpha; format: functional; remark: listed apart in the source
[13] = target: Retinoic acid receptor alpha (Homo sapiens, UniProt P10276); format: functional, cell-based
[14] = target: Retinoic acid receptor beta (Homo sapiens, UniProt P10826); format: functional, cell-based
[15] = target: T1, Type-1 angiotensin II receptor; remark: listed apart in the source
[16] = target: T2, Muscarinic acetylcholine receptor M1; format: functional, cell-based
Further: assay procedure not described here.

T4 sequence (P35367 whole entry): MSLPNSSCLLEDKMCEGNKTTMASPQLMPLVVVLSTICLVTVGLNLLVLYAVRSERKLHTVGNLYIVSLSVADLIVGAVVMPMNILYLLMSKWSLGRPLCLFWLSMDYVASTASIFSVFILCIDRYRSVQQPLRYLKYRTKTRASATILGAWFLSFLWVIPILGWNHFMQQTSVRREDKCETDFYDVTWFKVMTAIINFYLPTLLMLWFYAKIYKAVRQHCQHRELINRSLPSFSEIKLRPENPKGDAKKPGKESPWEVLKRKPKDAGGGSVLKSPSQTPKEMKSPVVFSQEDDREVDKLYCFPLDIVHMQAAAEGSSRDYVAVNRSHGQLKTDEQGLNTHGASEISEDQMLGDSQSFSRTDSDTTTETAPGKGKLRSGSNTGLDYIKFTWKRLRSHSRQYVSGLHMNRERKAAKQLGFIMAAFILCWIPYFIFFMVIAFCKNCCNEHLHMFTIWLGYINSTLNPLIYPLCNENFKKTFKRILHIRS
5-hydroxytryptamine receptor 5A, sequence (P47898 whole entry): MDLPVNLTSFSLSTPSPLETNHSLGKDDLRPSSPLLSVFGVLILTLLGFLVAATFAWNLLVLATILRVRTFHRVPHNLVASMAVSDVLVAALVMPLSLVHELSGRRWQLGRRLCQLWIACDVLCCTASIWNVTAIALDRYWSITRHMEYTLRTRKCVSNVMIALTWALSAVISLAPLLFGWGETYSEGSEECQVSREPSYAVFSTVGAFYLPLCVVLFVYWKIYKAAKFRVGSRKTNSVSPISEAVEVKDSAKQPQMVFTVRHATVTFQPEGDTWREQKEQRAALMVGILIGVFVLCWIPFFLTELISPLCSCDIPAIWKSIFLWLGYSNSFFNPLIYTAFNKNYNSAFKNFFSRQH
D(1B) dopamine receptor, sequence (P21918 whole entry): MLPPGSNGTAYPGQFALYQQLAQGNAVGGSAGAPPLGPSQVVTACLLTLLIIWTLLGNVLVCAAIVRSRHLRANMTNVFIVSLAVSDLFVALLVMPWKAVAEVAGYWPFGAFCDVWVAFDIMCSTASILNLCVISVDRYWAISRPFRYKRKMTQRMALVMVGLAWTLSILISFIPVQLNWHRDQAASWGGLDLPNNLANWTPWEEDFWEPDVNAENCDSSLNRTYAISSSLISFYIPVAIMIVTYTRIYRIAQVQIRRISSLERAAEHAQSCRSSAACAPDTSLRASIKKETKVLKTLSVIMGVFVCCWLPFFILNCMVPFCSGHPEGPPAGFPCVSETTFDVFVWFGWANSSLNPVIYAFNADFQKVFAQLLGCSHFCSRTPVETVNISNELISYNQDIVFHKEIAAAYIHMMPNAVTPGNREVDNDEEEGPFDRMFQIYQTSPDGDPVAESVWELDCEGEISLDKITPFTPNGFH
Rod cGMP-specific 3',5'-cyclic phosphodiesterase subunit alpha, sequence (P16499 whole entry): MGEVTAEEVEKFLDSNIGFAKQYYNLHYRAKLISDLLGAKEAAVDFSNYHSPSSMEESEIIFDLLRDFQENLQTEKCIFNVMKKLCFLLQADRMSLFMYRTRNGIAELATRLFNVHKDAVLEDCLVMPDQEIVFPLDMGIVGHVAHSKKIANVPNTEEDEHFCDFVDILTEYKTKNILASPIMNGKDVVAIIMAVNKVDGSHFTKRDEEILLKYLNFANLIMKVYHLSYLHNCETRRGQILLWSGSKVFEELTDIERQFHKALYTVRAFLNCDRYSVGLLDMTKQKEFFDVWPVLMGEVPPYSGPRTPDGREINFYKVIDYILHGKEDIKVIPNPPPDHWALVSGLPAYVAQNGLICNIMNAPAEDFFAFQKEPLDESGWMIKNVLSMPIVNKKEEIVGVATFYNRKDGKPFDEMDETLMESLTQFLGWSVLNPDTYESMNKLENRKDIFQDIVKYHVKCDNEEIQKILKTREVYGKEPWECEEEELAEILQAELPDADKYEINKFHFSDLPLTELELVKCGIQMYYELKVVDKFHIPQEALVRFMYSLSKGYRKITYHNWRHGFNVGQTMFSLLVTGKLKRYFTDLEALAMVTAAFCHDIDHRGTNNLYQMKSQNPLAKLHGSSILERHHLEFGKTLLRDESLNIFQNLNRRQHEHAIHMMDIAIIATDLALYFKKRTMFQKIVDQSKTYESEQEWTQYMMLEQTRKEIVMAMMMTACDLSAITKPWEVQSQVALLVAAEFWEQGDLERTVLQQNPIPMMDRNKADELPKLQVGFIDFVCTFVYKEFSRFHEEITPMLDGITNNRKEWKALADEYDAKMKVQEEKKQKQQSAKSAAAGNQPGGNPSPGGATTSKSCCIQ
T5 sequence (Q13133 whole entry): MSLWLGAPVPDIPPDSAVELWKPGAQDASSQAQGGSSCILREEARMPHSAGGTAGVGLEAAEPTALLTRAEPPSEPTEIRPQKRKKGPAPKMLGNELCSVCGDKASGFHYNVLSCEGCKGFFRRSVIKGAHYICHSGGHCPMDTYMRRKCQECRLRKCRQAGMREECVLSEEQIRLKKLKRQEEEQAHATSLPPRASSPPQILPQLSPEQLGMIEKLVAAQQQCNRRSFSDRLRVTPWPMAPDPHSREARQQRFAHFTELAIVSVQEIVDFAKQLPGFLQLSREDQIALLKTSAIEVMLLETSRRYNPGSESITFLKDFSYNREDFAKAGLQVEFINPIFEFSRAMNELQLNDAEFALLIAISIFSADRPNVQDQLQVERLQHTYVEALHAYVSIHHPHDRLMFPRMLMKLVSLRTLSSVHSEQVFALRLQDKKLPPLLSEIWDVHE
Retinoic acid receptor beta, sequence (P10826 whole entry): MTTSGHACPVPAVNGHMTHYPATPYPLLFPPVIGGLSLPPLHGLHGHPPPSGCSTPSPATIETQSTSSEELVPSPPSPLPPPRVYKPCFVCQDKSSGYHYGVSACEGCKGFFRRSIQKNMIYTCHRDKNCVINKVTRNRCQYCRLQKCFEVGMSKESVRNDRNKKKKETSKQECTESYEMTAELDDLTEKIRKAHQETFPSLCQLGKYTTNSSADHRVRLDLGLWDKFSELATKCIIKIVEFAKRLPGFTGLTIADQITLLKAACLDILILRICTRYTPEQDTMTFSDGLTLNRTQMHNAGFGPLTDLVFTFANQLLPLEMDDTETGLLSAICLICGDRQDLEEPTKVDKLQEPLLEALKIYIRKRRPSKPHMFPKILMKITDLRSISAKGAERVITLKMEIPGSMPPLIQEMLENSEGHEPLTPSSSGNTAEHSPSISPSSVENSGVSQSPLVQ
Retinoic acid receptor alpha, sequence (P10276 whole entry): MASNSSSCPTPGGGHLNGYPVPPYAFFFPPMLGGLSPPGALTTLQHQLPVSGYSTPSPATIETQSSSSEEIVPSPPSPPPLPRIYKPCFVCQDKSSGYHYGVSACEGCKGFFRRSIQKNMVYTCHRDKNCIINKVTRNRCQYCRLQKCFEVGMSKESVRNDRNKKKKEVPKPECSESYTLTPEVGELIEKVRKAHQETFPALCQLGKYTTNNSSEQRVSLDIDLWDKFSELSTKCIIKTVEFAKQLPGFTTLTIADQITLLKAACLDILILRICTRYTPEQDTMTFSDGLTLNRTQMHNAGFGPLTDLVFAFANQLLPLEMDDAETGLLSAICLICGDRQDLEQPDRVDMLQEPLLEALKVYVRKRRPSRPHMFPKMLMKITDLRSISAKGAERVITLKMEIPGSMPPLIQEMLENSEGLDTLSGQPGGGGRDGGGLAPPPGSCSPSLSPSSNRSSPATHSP
Beta-1 adrenergic receptor, sequence (P08588 whole entry): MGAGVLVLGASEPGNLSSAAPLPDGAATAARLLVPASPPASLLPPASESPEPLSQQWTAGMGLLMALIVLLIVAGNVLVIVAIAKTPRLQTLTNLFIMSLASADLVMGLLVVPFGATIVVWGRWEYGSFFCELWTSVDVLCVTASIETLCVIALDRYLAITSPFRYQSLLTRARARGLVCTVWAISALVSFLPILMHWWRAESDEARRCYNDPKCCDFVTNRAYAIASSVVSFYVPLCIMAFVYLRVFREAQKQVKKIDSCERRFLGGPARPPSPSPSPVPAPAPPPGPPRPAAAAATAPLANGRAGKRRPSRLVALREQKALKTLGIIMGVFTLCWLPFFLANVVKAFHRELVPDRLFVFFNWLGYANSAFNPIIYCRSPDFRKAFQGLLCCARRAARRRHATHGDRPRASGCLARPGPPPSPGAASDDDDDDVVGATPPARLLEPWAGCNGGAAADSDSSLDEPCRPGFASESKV

AC50 (D(1B) dopamine receptor): > 10 µM
AC50 [1]: > 10 µM
AC50 [2]: > 10 µM
AC50 [3]: 0.0004 µM
Compound: CCOc1nc2cccc(C(=O)O)c2n1Cc1ccc(-c2ccccc2-c2nnn[nH]2)cc1

Compound: CC(C)NC(=N)NC(=N)Nc1ccc(Cl)c(Cl)c1 [CHLORPROGUANIL]
AC50 [4]: > 30 µM

Compound: O=C(O)Cc1ccccc1Nc1c(Cl)cccc1Cl [DICLOFENAC]
AC50 (D(1B) dopamine receptor): > 10 µM
AC50 [1]: > 10 µM
AC50 [2]: > 10 µM
AC50 [5]: 85 µM

Compound: CN[C@@H]1[C@H](O[C@H]2[C@H](O[C@H]3[C@H](O)[C@@H](O)[C@H](NC(=N)N)[C@@H](O)[C@@H]3NC(=N)N)O[C@@H](C)[C@]2(O)CO)O[C@@H](CO)[C@H](O)[C@H]1O [DIHYDROSTREPTOMYCIN]
AC50 [4]: > 30 µM

Compound: O=C(O)Cc1ccccc1Oc1ccc(Cl)cc1Cl [FENCLOFENAC]
AC50 (Histamine H1 receptor [6]): > 30 µM
AC50 (Histamine H1 receptor [7]): > 30 µM

Compound: C#C[C@]1(O)C=C[C@H]2[C@@H]3CCC4=CC(=O)CC[C@@H]4[C@H]3CC[C@@]21CC [GESTODENE]
AC50 [4]: > 30 µM

AC50 (Histamine H1 receptor [6]): > 30 µM
AC50 (Histamine H1 receptor [7]): > 30 µM
Compound: CN1Cc2c(N)cccc2C(c2ccccc2)C1 (centres undefined) [NOMIFENSINE]

Compound: CC(C)C[C@H](NC(=O)[C@@H](O)[C@H](N)Cc1ccccc1)C(=O)O [UBENIMEX]
AC50 [8]: > 30 µM

AC50 [9]: > 30 µM
AC50 [10]: > 30 µM
AC50 [11]: > 30 µM
AC50 [12]: > 30 µM
AC50 [13]: > 30 µM
AC50 [14]: > 30 µM
AC50 [15]: 50 µM
Compound: COc1cc(C(=O)NS(=O)(=O)c2ccccc2C)ccc1Cc1cn(C)c2ccc(NC(=O)OC3CCCC3)cc12 [ZAFIRLUKAST]

Compound: O=C1Cc2cc(CCN3CCN(c4nsc5ccccc45)CC3)c(Cl)cc2N1 [ZIPRASIDONE]
AC50 [16]: 20 µM
